Assay results: patent US20100240591A1, “TPP II INHIBITORS FOR USE IN THE TREATMENT OF AUTOIMMUNE AND INFLAMMATORY DISEASES AND TRANSPLANT REJECTION” (ONCOREG AB, priority 2007, published 2010)
Where “and” joins values, the source holds several entries; their conditions need not be identical. Equal entries are not always repeated. The star is where a group is joined. Cbz = O=C(OCc1ccccc1)*

Key:
TPPII [1] = target: T1, TPPII (Mus musculus, UniProt Q64514); test: Inhibition of cleavage of AAF-AMC by enriched TPP II (fluorometric peptidase assay); type: biochemical; design: 1 ug of high molecular weight protein was used as enzyme in peptidase assays; endogenous in cells; EL-4 (mouse T lymphoma) by inference; details: for cleavage of AAF-AMC, single reading: arbitrary but relative units; for cleavage of AAF-AMC, mean: mean of three readings
Description: Protein Purification, Peptidase Assays and Analysis of DNA Fragmentation. 100×10^6 cells were sedimented and lysed by vortexing in glass beads and homogenisation buffer (50 mM Tris Base pH 7.5, 250 mM Sucrose, 5 mM MgCl2, 1 mM DTT). Cellular lysates were submitted to differential centrifugation where a supernatant from a 1 hour centrifugation at 100,000×g (cytosol) was submitted to 100,000×g centrifugation for 3-5 hours, which sedimented high molecular weight cytosolic proteins/protein complexes. The resulting pellet dissolved in 50 mM Tris Base pH 7.5, 30% Glycerol, 5 mM MgCl2, and 1 mM DTT, and 1 micro-g of high molecular weight protein was used as enzyme in peptidase assays or in Western blotting for TPP II expression. To test the activity of TPP II we used the substrate AAF-AMC (Sigma, St. Louis, Mo.), at 100 micro-M concentration in 100 micro-I of test buffer composed of 50 mM Tri Base pH 7.5, 5 mM MgCl2 and 1 mM DTT. Cleavage activity was measured by emission at 460 nm in a LS50B Luminescence Spectrometer (Perkin Elmer, Boston, Mass.). For analysis of DNA fragmentation cells were seeded in 12-well plates at 10^6 cells/ml and exposed to 25 micro-M etoposide, a DNA topoisomerase II inhibitor commonly used as an apoptosis-inducing agent, to starvation (50% PBS). Cells were seeded at 10^6 cells/ml in 12-well plates and incubated for the indicated times, usually 18-24 hours. DNA from EL-4 control and adapted cells was purified by standard chloroform extraction, and 2.5 micro-g of DNA was loaded on 1.8% agarose gel for detection of DNA from apoptotic cells.
Table 1 contains in vitro data, in fluorometric units which are arbitrary but relative, for the inhibition of cleavage of AAF-AMC (H-Ala-Ala-7-amido-4-methylcoumarin) by compounds at several concentrations. Some beneficial effect is seen for most of the compounds tested.
TPP II protein was enriched, and then a TPP II-preferred fluorogenic substrate AAF-AMC was used. 100×10^6 cells were sedimented and lysed by vortexing in glass beads and homogenisation buffer (50 mM Tris Base pH 7.5, 250 mM Sucrose, 5 mM MgCl2, 1 mM DTT). Cellular lysates were subjected to differential centrifugation; first the cellular homogenate was centrifuged at 14,000 rpm for 15 min, and then the supernatant was transferred to ultra-centrifugation tubes. Next the sample was ultra-centrifugated at 100,000×g for 1 hour, and the supernatant (denoted as cytosol in most biochemical literature) was subjected to 100,000×g centrifugation for 5 hours, which sedimented high molecular weight cytosolic proteins/protein complexes. The resulting pellet dissolved in 50 mM Tris Base pH 7.5, 30% Glycerol, 5 mM MgCl2, and 1 mM DTT, and 1 ug of high molecular weight protein was used as enzyme in peptidase assays.
To test the activity of TPP II we used the substrate and AAF-AMC (Sigma, St. Louis, Mo.), at 100 uM concentration in 100 ul of test buffer composed of 50 mM Tri Base pH 7.5, 5 mM MgCl2 and 1 mM DTT. To stop reactions we used dilution with 900 ul 1% SDS solution. Cleavage activity was measured by emission at 460 nm in a LS50B Luminescence Spectrometer (Perkin Elmer, Boston, Mass.).

TPPII [2] = target: T1, TPPII; test: Immuno-cytochemical staining of TPPII in live EL-4 cells treated with inhibitor; type: cell-based; design: endogenous in cells; host or cells: EL-4 mouse T-cell lymphoma; details: 2 hours, 10 micro-M
Description: Immunocytochemistry. Cells were attached to glass cover slips through cytospin and fixed in acetone:methanol (1:1) for 1 hour; then the slides were rehydrated in BSS buffer for 1 hour. The first antibody was added and remained for 1 hour until a brief wash in BSS, after which a secondary conjugate (anti-rabbit-FITC) was added and incubated for 1 hour.
Then the slides were washed and stained with Hoescht 333258 for 30 min. Finally, the slides were mounted with DABCO mounting buffer and kept at 4° C. until analysis.
We performed immuno-cytochemical staining to test whether targeting of TPPII in live cells affected enzyme expression or distribution, by the use of a chicken anti-TPPII serum.

EL-4 T-lymphoma cells = test: Growth of EL-4 T-lymphoma cells in vivo in syngeneic C57BI/6 mice; design: species or system mouse; details: 13.8 mg/kg Z-GLA-OH added to 5 mg/kg Dexamethasone, twice weekly, C57BI/6 mice (FIG. 9)
Description: To test whether our TPPII inhibitors could improve the therapeutic effects of an anti-inflammatory drug in vivo, we examined growth of the T cell-derived lymphoma line EL-4 in vivo, in mice subjected to Cortisone-treatment. We used the derivate Dexamethasone at 5 mg/kg, a dose previously reported to cause thymocyte apoptosis, and a block of T cell responses in vivo (Brewer, J. A., Kanagawa, O., Sleckman, B. P., Muglia, L. J., Thymocyte apoptosis induced by T cell activation is mediated by glucocorticoids in vivo. J. Immunol. 2002, 169:1837-43.). The glucocorticoid receptor of T cells is crucial for curtailing lethal immune activation (Brewer J A, Khor B, Vogt S K, Muglia L M, Fujiwara H, Haegele K E, Sleckman B P, Muglia L J. T-cell glucocorticoid receptor is required to suppress COX-2-mediated lethal immune activation. Nat. Med. 2003 October; 9(10):1318-22.). Inhibited activation and proliferation of T cells in vivo by Dexamethasone-treatment is a standard method to treat patients with auto-immune, inflammatory as well as transplantation rejection diseases. It is however clear that disease symptoms, as well as immune activation and proliferation, are sometimes not controlled by Dexamethasone, or other Cortisone derivatives. […]
5×10^6 EL-4 T-lymphoma cells were inoculated subcutaneously into syngeneic C57BI/6 mice. […] The size of EL-4 lymphoma tumours were measured manually twice weekly. […]

Subtilisin = details: bacterial homologue of the eukaryotic TPP II; cited from earlier work

T1 sequence (Q64514 2-1262 limits assumed): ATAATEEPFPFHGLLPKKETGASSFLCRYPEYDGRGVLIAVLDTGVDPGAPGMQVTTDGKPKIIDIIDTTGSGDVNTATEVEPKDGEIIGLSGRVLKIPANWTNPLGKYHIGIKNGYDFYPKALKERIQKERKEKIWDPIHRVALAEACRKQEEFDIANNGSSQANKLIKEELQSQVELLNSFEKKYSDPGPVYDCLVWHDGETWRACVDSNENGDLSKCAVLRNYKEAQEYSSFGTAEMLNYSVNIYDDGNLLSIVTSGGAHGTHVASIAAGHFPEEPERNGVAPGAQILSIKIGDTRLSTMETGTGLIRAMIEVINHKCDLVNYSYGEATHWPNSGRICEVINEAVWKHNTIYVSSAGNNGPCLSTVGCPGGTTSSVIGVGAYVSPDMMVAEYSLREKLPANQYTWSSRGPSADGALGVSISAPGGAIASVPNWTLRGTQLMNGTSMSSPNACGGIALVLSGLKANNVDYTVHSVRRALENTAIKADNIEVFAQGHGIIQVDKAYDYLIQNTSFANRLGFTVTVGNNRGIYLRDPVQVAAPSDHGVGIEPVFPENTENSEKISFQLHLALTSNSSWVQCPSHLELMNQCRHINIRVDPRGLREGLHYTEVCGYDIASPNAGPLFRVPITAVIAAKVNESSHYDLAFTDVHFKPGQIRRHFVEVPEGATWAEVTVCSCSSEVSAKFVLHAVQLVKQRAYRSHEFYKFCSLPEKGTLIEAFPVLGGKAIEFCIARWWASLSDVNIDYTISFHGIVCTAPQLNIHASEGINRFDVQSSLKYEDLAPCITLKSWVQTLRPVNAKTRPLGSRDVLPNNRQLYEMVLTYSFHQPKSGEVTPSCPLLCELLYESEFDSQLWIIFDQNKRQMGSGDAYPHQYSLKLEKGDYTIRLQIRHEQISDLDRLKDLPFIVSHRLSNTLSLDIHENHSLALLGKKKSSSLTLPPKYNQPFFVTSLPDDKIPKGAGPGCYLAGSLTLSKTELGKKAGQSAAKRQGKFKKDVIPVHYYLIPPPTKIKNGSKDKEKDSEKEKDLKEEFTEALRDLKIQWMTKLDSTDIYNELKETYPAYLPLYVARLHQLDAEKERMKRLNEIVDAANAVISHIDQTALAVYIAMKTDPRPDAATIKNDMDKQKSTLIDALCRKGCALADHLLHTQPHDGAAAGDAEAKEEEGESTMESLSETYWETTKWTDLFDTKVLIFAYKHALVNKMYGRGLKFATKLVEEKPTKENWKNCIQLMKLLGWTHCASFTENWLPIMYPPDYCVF

Question: For Cbz-Gly-Leu-Ala-OH [Z-GLA-OH], which “cleavage of AAF-AMC, single reading” value (TPPII [1]; compound 1 nM) is on record?
Answer: The value was 32.54 fluorometric units and 32.61 fluorometric units and 33.41 fluorometric units.

Question: And the “cleavage of AAF-AMC, mean” value (TPPII [1]; compound 1 nM)?
Answer: The value was 32.85 fluorometric units.

Question: What about the “cleavage of AAF-AMC, single reading” value (TPPII [1]; compound 10 nM) of the same substance?
Answer: Its value is 21.74 fluorometric units and 21.93 fluorometric units and 24.44 fluorometric units.

Question: And the “cleavage of AAF-AMC, mean” value (TPPII [1]; compound 10 nM)?
Answer: The value was 22.70 fluorometric units.

Question: And the “cleavage of AAF-AMC, single reading” value (TPPII [1]; compound 100 nM)?
Answer: The value was 14.43 fluorometric units and 14.26 fluorometric units and 14.37 fluorometric units.

Question: What about the “cleavage of AAF-AMC, mean” value (TPPII [1]; compound 100 nM) of the same substance?
Answer: The value was 14.35 fluorometric units.

Question: What about the “cleavage of AAF-AMC, single reading” value (TPPII [1]; compound 1 uM) of the same substance?
Answer: The value was 11.43 fluorometric units and 11.9 fluorometric units and 11.46 fluorometric units.

Question: And the “cleavage of AAF-AMC, mean” value (TPPII [1]; compound 1 uM)?
Answer: Its value is 11.60 fluorometric units.

Question: What about the “cleavage of AAF-AMC, single reading” value (TPPII [1]; compound 10 uM) of the same substance?
Answer: Its value is 6.47 fluorometric units and 7.66 fluorometric units and 7.49 fluorometric units.

Question: And the “cleavage of AAF-AMC, mean” value (TPPII [1]; compound 10 uM)?
Answer: Its value is 7.21 fluorometric units.

Question: What about the “cleavage of AAF-AMC, single reading” value (TPPII [1]; compound 100 uM, 0 compound about 47-51) of the same substance?
Answer: Its value is 1.14 fluorometric units and 1.44 fluorometric units and 1.55 fluorometric units.

Question: And the “cleavage of AAF-AMC, mean” value (TPPII [1]; compound 100 uM)?
Answer: Its value is 1.38 fluorometric units.

Question: And the “detection of TPPII by immuno-cytochemical staining” value (TPPII [2])?
Answer: Its value is “rapid decrease in the detection of TPPII, to almost undetectable levels”.

Question: What about the “anti-proliferative effect on EL-4 cells in vivo, in combination” value (EL-4 T-lymphoma cells) of the same substance?
Answer: The value was “increased the anti-proliferative effects of Dexamethasone in some of the mice”.

Question: What about the “inhibition of Subtilisin” value (Subtilisin) of the same substance?
Answer: The value was “found to inhibit”.
